Test results from article PMC4259358, “Functional Characterization of Nuclear Localization and Export Signals in Hepatitis C Virus Proteins and Their Role in the Membranous Web” (PLoS ONE, 2014).
Ends that are not written are not given here.

Assays:
[1] = system: IPO5 (importin β3/kap β3); test: HCV genotype 1 peptide array probed with Huh7.5 cell lysate; assay type: binding; details: array of 15 residue peptides (8 residue overlaps), Huh7.5 lysate, anti-IPO5 antibody; a peptide bound
Method: (§1) However, various HCV proteins contain putative NLSs and NESs, [41], [53]. To identify potential interactions between cellular NTFs and HCV proteins, we designed a peptide array spanning the entire HCV genotype 1 consensus polyprotein sequence. These arrays were incubated with or without cell lysates and then probed using specific antibodies for components of the nuclear transport machinery. We detected binding of IPOA5 (importin α5/kap α1), IPO5 (importin β3/kap β3) and XPO1 (CRM1), but not IPO1 (importin β1/kap β1), to eleven distinct regions within HCV proteins (Fig. 1A, Table 1). All of the antibodies were also tested by western blotting of cell lysates to validate that they detected the corresponding NTF (Fig. 1B).
(§2) Figure 1 Identification of sequences within the HCV polyprotein that bind nuclear transport factors. (A) HCV genotype 1 peptide arrays consisting of 15 residue peptides (with 8 residue overlaps) spanning the complete HCV polypeptide were incubated with Huh7.5 cells lysates. Bound NTFs were detected using antibodies specific for the indicated NTF. Control peptide arrays were incubated with only NTF-specific antibodies. The different colored regions of the array represent peptides derived from different HCV proteins (see schematic). The last four peptides on the array are additional sequences which some of the HCV strains have in their polyproteins at the C terminus. (B) The same lysate used to probe the peptide arrays was also analyzed by western blotting to detect the indicated NTFs and assess the specificities of the antibodies. (C) Schematic summary of the localization of the NTF binding sites on the indicated HCV proteins.
(§3) A consensus sequence of HCV Genotype 1 polyprotein was used to design consecutive fifteen amino-acid residue peptides with eight residue overlaps along the complete polyprotein sequence. Peptides were synthesised by Intavis Bioanalytical Instruments (Koeln, Germany) using a CelluSpots peptide array synthesis technology. Peptide arrays were incubated in blocking buffer (TBS containing 0.05% tween 20 (v/v) and 10% skim milk (g/v)) overnight at 4°C on a gentle shaker. Following the blocking, the peptide arrays were washed three times with washing buffer (TBS containing 0.05% tween 20 (v/v)) for 5 min at room temperature on a gentle shaker. The peptide arrays were then incubated for 4 h with cell lysate from two T-75 flasks of fully confluent cells lysed by lysis buffer (10 mM Tris-HCl, pH 7.5, 150 mM NaCl, 2 mM EDTA, 0.1% Triton-X100, 1 mM PMSF, 2 µg/ml aprotinin, 2 µg/ml leupeptin and 0.1 units/µl RNasin) mixed with blocking buffer (ratio 1∶1 v/v) and incubated at room temperature on a gentle shaker. Following this incubation, peptide arrays were rinsed with washing buffer for 30 sec and then washed five times in washing buffer and each wash lasted for 5 min at room temperature on a gentle shaker. Following washing, the peptide arrays were incubated with the primary antibody as indicated in Fig. 1 (1∶100 dilution) for 4 h at room temperature on a gentle shaker. Arrays were then rinsed, washed as described above, and incubated with a complementary HRP conjugated secondary antibody (1∶1000) for 2 h at room temperature on a gentle shaker. The peptide arrays were then rinsed and washed as described above followed by initiation of HRP chemiluminescence with ECL detection reagent (GE Healthcare, RPN2106) and the signal was detected using Fuji RX film (Fujifilm, 47410 08399).

[2] = system: IPOA5 (importin α5/kap α1); test: as above; assay type: binding; details: array of 15 residue peptides (8 residue overlaps), Huh7.5 lysate, anti-IPOA5 antibody; a peptide bound
Method: as §1, §2, §3

JFH-1 HCV = assay type: cell-based, Hepatitis C virus; details: Huh7.5, JFH-1, 4 h at 4°C then 37°C; added at 2 h intervals; % NS5A-positive cells at 72 h PTS; Ezetimibe 30 µM, LMB 18 nM, BMS-986094 10 nM, DGAT 1 inhibitor 10 nM; n = 3
Method: Huh7.5 cells were infected with JFH-1 HCV and maintained at 4°C for 4 hours (h) to synchronize the cells before shifting the temperature to 37°C. Post temperature shift (PTS), infected cells were incubated for various lengths of times prior to the addition of peptides or known inhibitors of HCV at 2 h intervals. […] We deliberately selected the final time point of 72 h PTS to reflect the number of cells infected by a second round of infection. […] This would be reflected by the number of cells infected in the second round as measured at 72 h PTS.
In order to elucidate the time points in infection when the nuclear transport signals bearing peptides are functional, cells were synchronously infected and treated with the indicated peptides. Each time point (2 h intervals) represents a culture treated with the indicated reagent at the specified time post temperature shift (PTS) and initiation of HCV infection. […] (A) Known inhibitors of HCV production (Ezetimibe (30 µM), LMB (18 nM), BMS-986094 (10 nM) and DGAT 1 inhibitor (10 nM)) and control (Pen peptide 100 µM, DMSO 2%, no treatment, and no infection) were examined. […] Error bars represent ± standard deviation, n = 3.
For the time of addition experiments, cells were seeded at a density of 6.25×10^4 cells/well in a 96-well plate and infected with 0.1 genomic equivalents of serially passaged JFH-1 virus on ice: cells then were incubated at 4°C for 4 h.
Briefly, Huh7.5 cells were infected as described above and the test compounds were added to different wells at different time points before the temperature shift (-4 h and -2 h) and every 2 h after the temperature shift (0, 2, 4,…, 48 h). […] The infection levels were calculated by counting infected and total cells numbers in ten random fields for each condition. The non-treated cell infection level was normalized to 100% and all other infections were calculated based on that normalization.

HEK293T cells = test: Localization of nuclear transport signal-double GFP reporter in HEK293T cells; assay type: cell-based; set-up: key: +++ for strong; ++ for moderate; + for weak; − for no localization; details: double GFP cargo, 24 h post transfection, fluorescence quantified with ImageJ (S6, S7 Figures); NES/SEN on SV40 NLS double GFP
Text: To determine whether NTF binding sites found in the HCV proteins were functional nuclear transport signals, we constructed reporter proteins each consisting of one of the HCV proteins NTF binding sites followed by two C-terminal, tandemly repeated GFP molecules. The double GFP moieties were required to keep the reporter from entering the nucleus, since a single GFP is small enough to diffuse freely through NPCs, [35]. As controls, constructs containing the reversed amino-acid residue sequence of the potential NLS (SLN) were also examined using the double GFP reporter assay (S5 Figure). These SLN reporters were predicted to not accumulate in the nucleoplasm. In addition, reporters to examine the functionality of the potential XPO1 binding domains were also constructed. These reporters consist of an SV40 NLS and a double GFP molecule followed by one of the various potential NESs at the C-terminus (S5 Figure). In the absence of a functional NES, this reporter will accumulate in the nucleus. However, a functional NES is predicted to export the reporter, leading to increased steady-state levels of the reporter in the cytoplasm.
Figure 4 Functionality of the putative nuclear transport signals in cells. Cells were transfected by the vectors encoding a nuclear transport reporter consisting of a tandemly repeated double GFP fused to the indicated C-terminal nuclear transport signal (panels A-N). At 24 h following transfection, cells were fixed and stained with Hoechst to visualize the nucleus. Cells were examined using a Zeiss inverted Axiovert 200 M microscope to assess the localization of the GFP (green) and its relationship to the nucleus (blue). A hashed yellow square demarcates the magnified area shown in the right-most image of each panel. Fluorescent intensity was quantified using ImageJ v. […] Analysis of the reverse sequences of each transport signal as well as the mutant SV40 NLS was also performed and the results are shown in S7 Figure.
Nuclear transport signals-double GFP constructs were transfected into HEK293T cells using lipofectamine 2000. At 24 h post transfection cells were fixed, stained, and visualized for localization of the GFP. For detailed information see S1 Methods.
Nuclear transport signal-double GFP constructs were transfected into HEK293T cells using lipofectamine 2000 reagent (Invitrogen, 11668019). At 24 h post transfection cells were fixed with 3.76% formaldehyde at room temperature (Sigma, F8775-500ML) for 8 min then permeabilized in 0.2% Triton X-100 (VWR, CA97062-208) for 2 min. Cells were washed three times with X1 PBS and were stained with Hoechst 1:5000 in X1 PBS for 5 min followed by three washes with X1 PBS. The cells were visualized using a Zeiss inverted Axiovert 200M microscope with a 20x/0.8 objective lens to examine localization of the GFP. At least ten random fields of cells were imaged for each combination. Channels were merged using ImageJ software (National Institutes of Health). Photoshop Elements 10 (Adobe) software was used to adjust brightness and contrast levels for individual images and to assemble images into figures.

XPO1 (CRM1) = test: HCV genotype 1 peptide array probed with Huh7.5 cell lysate; assay type: binding; details: array of 15 residue peptides (8 residue overlaps), Huh7.5 lysate, anti-XPO1 antibody; a peptide bound
Method: as §1, §2, §3

IPOA5 = molecular target: T1, IPOA5 (Homo sapiens, UniProt P52294); test: biochemical; assay type: binding
T1 construct: Expression and purification of full length IPOA5, IPO5 were perform according to methods described previously; His tag; made in house; host or cells: Escherichia coli BL21(DE3), pET21 vector
T1 sequence (P52294 whole entry): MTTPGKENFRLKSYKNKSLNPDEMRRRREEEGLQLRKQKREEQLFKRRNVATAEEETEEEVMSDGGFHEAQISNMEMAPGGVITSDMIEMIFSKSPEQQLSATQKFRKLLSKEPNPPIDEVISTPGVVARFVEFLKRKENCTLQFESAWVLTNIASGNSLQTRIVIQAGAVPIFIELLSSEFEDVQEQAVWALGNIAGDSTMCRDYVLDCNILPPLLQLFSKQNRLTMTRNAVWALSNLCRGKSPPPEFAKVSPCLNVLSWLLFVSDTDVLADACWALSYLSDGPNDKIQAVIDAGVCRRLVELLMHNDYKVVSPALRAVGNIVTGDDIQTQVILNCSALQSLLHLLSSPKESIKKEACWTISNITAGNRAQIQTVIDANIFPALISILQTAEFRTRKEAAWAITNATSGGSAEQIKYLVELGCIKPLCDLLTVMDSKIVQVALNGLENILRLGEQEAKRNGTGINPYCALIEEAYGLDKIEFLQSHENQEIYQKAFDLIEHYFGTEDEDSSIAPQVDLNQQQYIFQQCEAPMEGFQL

IPO5 = molecular target: T2, IPO5 (Homo sapiens, UniProt O00410); test: biochemical; assay type: binding
T2 construct: Expression and purification of full length IPOA5, IPO5 were perform according to methods described previously; His tag; made in house; host or cells: Escherichia coli BL21(DE3), pET21 vector
T2 sequence (O00410 whole entry): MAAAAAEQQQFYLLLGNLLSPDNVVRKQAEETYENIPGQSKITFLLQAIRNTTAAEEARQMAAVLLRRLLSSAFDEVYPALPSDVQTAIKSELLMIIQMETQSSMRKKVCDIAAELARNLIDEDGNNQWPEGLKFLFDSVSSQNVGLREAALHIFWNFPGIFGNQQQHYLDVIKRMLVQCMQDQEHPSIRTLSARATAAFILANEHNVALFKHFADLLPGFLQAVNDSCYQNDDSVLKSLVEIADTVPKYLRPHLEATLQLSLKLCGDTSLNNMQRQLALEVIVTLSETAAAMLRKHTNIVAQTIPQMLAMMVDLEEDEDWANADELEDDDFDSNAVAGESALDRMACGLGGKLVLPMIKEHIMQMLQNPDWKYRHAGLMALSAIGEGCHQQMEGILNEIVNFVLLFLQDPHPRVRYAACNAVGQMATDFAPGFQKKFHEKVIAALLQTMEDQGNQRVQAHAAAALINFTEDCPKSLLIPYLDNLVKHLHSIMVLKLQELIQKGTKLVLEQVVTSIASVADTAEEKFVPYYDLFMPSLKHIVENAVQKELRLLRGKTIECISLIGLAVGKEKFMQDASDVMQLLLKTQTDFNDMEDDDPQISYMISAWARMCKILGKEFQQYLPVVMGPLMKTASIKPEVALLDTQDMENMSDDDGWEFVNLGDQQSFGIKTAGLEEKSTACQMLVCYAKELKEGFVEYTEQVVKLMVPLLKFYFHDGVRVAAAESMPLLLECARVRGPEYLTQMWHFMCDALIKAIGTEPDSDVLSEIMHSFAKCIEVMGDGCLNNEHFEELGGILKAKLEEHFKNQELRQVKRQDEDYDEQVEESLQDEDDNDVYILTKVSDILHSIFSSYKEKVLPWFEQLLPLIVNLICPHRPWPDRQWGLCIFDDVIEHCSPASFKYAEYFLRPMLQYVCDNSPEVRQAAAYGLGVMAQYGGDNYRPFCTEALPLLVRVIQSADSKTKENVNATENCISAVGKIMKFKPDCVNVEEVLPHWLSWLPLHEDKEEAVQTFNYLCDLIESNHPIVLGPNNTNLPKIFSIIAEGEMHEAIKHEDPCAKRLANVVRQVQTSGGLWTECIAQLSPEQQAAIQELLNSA

SQRRGRTGRGRQGTY [H19]
Binds to IPO5 [1]: H19: 1489-[…]-1503
Binding to IPOA5 [2]: H19: 1489-[…]-1503

O=C1[C@H](CC[C@H](O)c2ccc(F)cc2)[C@@H](c2ccc(O)cc2)N1c1ccc(F)cc1 [Ezetimibe]
time of addition at which the ability to inhibit HCV infection is lost (JFH-1 HCV): 4–10 h PTS

QPRGRRQPIPKDRRS [A8, HCV genotype 1 array peptide, core residues 57-71]
Binds to IPO5 [1]: A8: 57-[…]-71
Binding to IPOA5 [2]: A8: 57-[…]-71

GWVIVKKEMPSFIIPRQIKIWFQNRRMKWKK [NS2 SLN]
Localization Cytoplasmic (HEK293T cells): +++
Localization Nuclear (HEK293T cells): −

IPKDRRSTGKAWGKP [A9, HCV genotype 1 array peptide, core residues 65-79]
Binds to IPO5 [1]: A9: 65-[…]-79
Binding to IPOA5 [2]: A9: 65-[…]-79

KVIDTLTCGFADLMG [A16, HCV genotype 1 array peptide, core residues 121-135]
Binding to XPO1 (XPO1 (CRM1)): A16: 121-[…]-135

RHRSRNVGKVIDTLT [A15, HCV genotype 1 array peptide, core residues 113-127]
Binds to IPO5 [1]: A15: 113-[…]-127

PPPRRRRTVRQIKIWFQNRRMKWKK [NS5A NLS]
Kd (IPOA5): 7630 ± 259 nM
Kd (IPO5): 32.3 ± 4.99 nM

RRRTVGLSESTISEA [M4]
Binds to IPO5 [1]: M4: 2329-[…]-2343

FLLALLSCITVPVSA [A23, HCV genotype 1 array peptide, core residues 177-191]
Binding to XPO1 (XPO1 (CRM1)): A23: 177-[…]-191

VPQDAVSRSQRRGRT [H18]
Binds to IPO5 [1]: H18: 1481-[…]-1495
Binding to IPOA5 [2]: H18: 1481-[…]-1495

TIFYQLWWILRALFLKYHPSLTLLILRQIKIWFQNRRMKWKK [NS2 SEN]
Localization Cytoplasmic (HEK293T cells): −
Localization Nuclear (HEK293T cells): +++

PRHRSRNVGKRQIKIWFQNRRMKWKK [Core NLS 4]
Kd (IPOA5): 518 ± 28.6 nM
Kd (IPO5): 105 ± 31.1 nM

RKTKRNTNRRPEDVK [A2, HCV genotype 1 array peptide, core residues 9-23]
Binds to IPO5 [1]: A2: 9-[…]-23
Binding to IPOA5 [2]: A2: 9-[…]-23

CC[C@H](C)[C@H](NC(=O)[C@H](CCCCN)NC(=O)[C@@H](NC(=O)[C@H](CCC(N)=O)NC(=O)[C@H](CCCNC(=N)N)NC(=O)[C@@H](NC(=O)[C@H](CCCCN)NC(=O)[C@H](CCCNC(=N)N)NC(=O)[C@H](CCCCN)NC(=O)[C@H](CCCCN)NC(=O)[C@H](CCCCN)NC(=O)[C@@H]1CCCN1)C(C)C)[C@@H](C)CC)C(=O)N[C@@H](Cc1c[nH]c2ccccc12)C(=O)N[C@@H](Cc1ccccc1)C(=O)N[C@@H](CCC(N)=O)C(=O)N[C@@H](CC(N)=O)C(=O)N[C@@H](CCCNC(=N)N)C(=O)N[C@@H](CCCNC(=N)N)C(=O)N[C@@H](CCSC)C(=O)N[C@@H](CCCCN)C(=O)N[C@@H](Cc1c[nH]c2ccccc12)C(=O)N[C@@H](CCCCN)C(=O)N[C@@H](CCCCN)C(=O)O [SV40 NLS, reference compound]
Kd (IPOA5): 27.1 ± 4.23 nM

TLLGQCLWWLCYLLT [E10]
Binding to XPO1 (XPO1 (CRM1)): E10: 841-[…]-855

KAPTPPPRRRRTVGL [M3]
Binds to IPO5 [1]: M3: 2321-[…]-2335

PIIFSPMEKKVIVWG [F3]
Binding to IPOA5 [2]: F3: 977-[…]-991

LPGFPFSIFLLALLS [A22, HCV genotype 1 array peptide, core residues 169-183]
Binding to XPO1 (XPO1 (CRM1)): A22: 169-[…]-183

PARRRGDKRGALLSP [F24]
Binds to IPO5 [1]: F24: 1145-[…]-1159

MSTNPKPQRKTKRNT [A1, HCV genotype 1 array peptide, core residues 1-15]
Binds to IPO5 [1]: A1: 1-[…]-15
Binding to IPOA5 [2]: A1: 1-[…]-15

PARRRGDKRRQIKIWFQNRRMKWKK [NS3 NLS 1]
Kd (IPO5): 33.8 ± 5.6 nM

CC[C@H](C)[C@H](NC(=O)[C@H](CCCCN)NC(=O)[C@@H](NC(=O)[C@H](CCC(N)=O)NC(=O)[C@H](CCCNC(=N)N)NC(=O)CNC(=O)[C@H](Cc1c[nH]c2ccccc12)NC(=O)[C@@H](NC(=O)[C@@H](NC(=O)[C@@H](NC(=O)[C@H](CCCCN)NC(=O)[C@H](CCCCN)NC(=O)[C@H](CCC(=O)O)NC(=O)[C@H](CCSC)NC(=O)[C@@H]1CCCN1C(=O)[C@H](CO)NC(=O)[C@H](Cc1ccccc1)NC(=O)[C@@H](NC(=O)[C@@H](NC(=O)[C@@H]1CCCN1)[C@@H](C)CC)[C@@H](C)CC)C(C)C)[C@@H](C)CC)C(C)C)[C@@H](C)CC)C(=O)N[C@@H](Cc1c[nH]c2ccccc12)C(=O)N[C@@H](Cc1ccccc1)C(=O)N[C@@H](CCC(N)=O)C(=O)N[C@@H](CC(N)=O)C(=O)N[C@@H](CCCNC(=N)N)C(=O)N[C@@H](CCCNC(=N)N)C(=O)N[C@@H](CCSC)C(=O)N[C@@H](CCCCN)C(=O)N[C@@H](Cc1c[nH]c2ccccc12)C(=O)N[C@@H](CCCCN)C(=O)N[C@@H](CCCCN)C(=O)O [NS2 NLS]
Kd (IPOA5): 79.3 ± 3.89 nM

RSQRRGRTTGRGRRQIKIWFQNRRMKWKK [NS3 NLS 2]
Kd (IPOA5): 36.6 ± 7.13 nM
Kd (IPO5): 35.8 ± 7.26 nM

VTRNADVIPARRRGD [F23]
Binds to IPO5 [1]: F23: 1137-[…]-1151

PSWGPTDPRHRSRNV [A14, HCV genotype 1 array peptide, core residues 105-119]
Binds to IPO5 [1]: A14: 105-[…]-119

VTRRRRPPPRQIKIWFQNRRMKWKK [NS5A SLN]
Localization Cytoplasmic (HEK293T cells): +++
Localization Nuclear (HEK293T cells): −

GVYLLPRRGPRLGVR [A5, HCV genotype 1 array peptide, core residues 33-47]
Binds to IPO5 [1]: A5: 33-[…]-47
Binding to IPOA5 [2]: A5: 33-[…]-47
